Laboratory results reported in ChEMBL document CHEMBL1122563, “Design, synthesis, and X-ray data of novel potential antipsychotic agents. Substituted 7-phenylquinolizidines: stereospecific, neuroleptic, and antinociceptive properties” (J Med Chem, 1984).

Tests used:
[1] = organism: Mus musculus; experiment: animal or person; type: functional; conditions: in Rattus norvegicus, po, 1 h
Description: Peroral dose inhibiting acetic acid induced writhing 1 hr after administration in 50% of the rats.

[2] = organism: Mus musculus; experiment: animal or person; type: functional; conditions: sc
Description: Subcutaneous dose at which 50% of the mouse start to lick their paws later than 10 s using hot plate assay.

[3] = organism: Mus musculus; experiment: animal or person; type: functional; conditions: po
Description: Peroral dose at which 50% of the mouse start to lick their paws later than 10 s using hot plate assay.

[4] = organism: Mus musculus; experiment: animal or person; type: functional; conditions: in Rattus norvegicus, sc, 8 h
Description: Subcutaneous dose inhibiting acetic acid induced writhing 8 hr after administration in 50% of the rats.

[5] = organism: Mus musculus; experiment: animal or person; type: functional; conditions: in Rattus norvegicus, po, 8 h
Description: Peroral dose inhibiting acetic acid induced writhing 8 hr after administration in 50% of the rats.

[6] = organism: Mus musculus; experiment: animal or person; type: functional; conditions: in Rattus norvegicus, sc, 0.5 h
Description: Subcutaneous dose inhibiting acetic acid induced writhing 0.5 hr after administration in 50% of the rats.

[7] = organism: Mus musculus; experiment: animal or person; type: functional; conditions: in Rattus norvegicus, po, 24 h
Description: Peroral dose inhibiting acetic acid induced writhing 24 hr after administration in 50% of the rats.

[8] = organism: Rattus norvegicus; experiment: animal or person; conditions: ip
Description: (§1) Intraperitoneal dose producing a block of avoidance response in 50% of the rats.

[9] = Levels of homovanillic acid (HVA) in rat brain 2 hour after an intraperitoneal injection dose; type: ADME, tissue-based; conditions: in vivo, ip
[10] = organism: Rattus norvegicus; experiment: dose producing 50% of the theoretically obtained maximum catalepsy in rats; type: functional
[11] = tested on: Mus musculus; experiment: Intraperitoneal dose inhibiting acetic acid induced writhing in 50% of mice; type: functional
[12] = organism: Rattus norvegicus
Description: as §1

[13] = organism: Mus musculus; experiment: Dose at which 50% of the mouse show not more than one extension movement.; type: functional
[14] = Rattus norvegicus, read-out: ED50
[15] = Mus musculus, ip, read-out: ED50

Row | SMILES | ED50 [8] | HVA level [9] | ED50 [10, 14] | other results
1 | CCCC[C@]1(OC(C)=O)CCN2C[C@H](c3ccccc3)CC[C@H]2C1 |  |  |  | ED50 [1]: 10 mg/kg; ED50 [2]: 100 mg/kg; ED50 [3]: 551 mg/kg
2 | CCCC[C@@]1(OC(C)=O)CCN2C[C@H](c3ccccc3)CC[C@H]2C1 |  |  |  | ED50 [2]: 1.1 mg/kg; ED50 [4]: 3.8 mg/kg; ED50 [5]: 4.9 mg/kg; ED50 [6]: 0.14 mg/kg; ED50 [7]: 69 mg/kg
3 | CC[C@]1(O)CCN2C[C@@H](c3ccc(Cl)cc3Cl)CC[C@@H]2C1 | > 30 mg/kg | 284% |  | 
4 | CC(C)(C)[C@]1(O)CCN2C[C@@H](c3ccccc3Cl)CC[C@@H]2C1 | 10 mg/kg | 449% | 20.2 mg/kg | 
5 | C[C@]1(O)CCN2C[C@@H](c3ccc(Cl)cc3Cl)CC[C@@H]2C1 | > 30 mg/kg | 157% |  | 
6 | CC(C)(C)[C@]1(O)CCN2C[C@@H](c3ccccc3)CC[C@@H]2C1.Cl | > 30 mg/kg | 308% |  | 
7 | CC(C)(C)[C@]1(O)CCN2C[C@@H](c3ccc(Cl)cc3)CC[C@@H]2C1.Cl | 13.5 mg/kg | 290% | 16 mg/kg | 
8 | CCCC[C@@]1(OC(C)=O)CCN2C[C@@H](c3ccccc3)CC[C@@H]2C1.Cl |  |  |  | ED50 [11, 15]: > 100 mg/kg
9 | CCCC[C@]1(O)CCN2C[C@@H](c3ccc(Cl)cc3Cl)CC[C@@H]2C1.Cl | 42 mg/kg | 150% | > 10 mg/kg | 
10 | CCC(C)[C@]1(O)CCN2C[C@@H](c3ccc(Cl)cc3Cl)CC[C@@H]2C1.Cl (some centres not stated) | 6.25 mg/kg | 467% | 5.5 mg/kg | 
11 | Cl.O[C@]1(c2ccccc2)CCN2C[C@@H](c3ccccc3Cl)CC[C@@H]2C1 | > 30 mg/kg | 99% |  | 
12 | CC(=O)O[C@@]1(C(C)(C)C)CCN2C[C@@H](c3ccccc3)CC[C@@H]2C1.Cl |  |  |  | ED50 [11, 15]: 2.6 mg/kg
13 | CC(C)(C)[C@]1(O)CCN2C[C@@H](c3ccc(Cl)c(Cl)c3)CC[C@@H]2C1.Cl | > 30 mg/kg | 190% | 30 mg/kg | 
14 | CC(=O)O[C@@]1(c2ccccc2)CCN2C[C@@H](c3ccccc3Cl)CC[C@@H]2C1.Cl |  |  |  | ED50 [11, 15]: 2.8 mg/kg
15 | CC(=O)O[C@@]1(C(C)(C)C)CCN2C[C@@H](c3ccc(Cl)cc3Cl)CC[C@@H]2C1.Cl |  |  |  | ED50 [11, 15]: 300 mg/kg
16 | CC(C)(C)[C@]1(O)CCN2C[C@@H](c3cccc(Cl)c3)CC[C@@H]2C1.Cl | > 30 mg/kg | 103% | > 30 mg/kg | 

Row | SMILES | ED50 [8] | HVA level [9] | ED50 [10, 14] | other results
17 | CC(C)[C@]1(O)CCN2C[C@@H](c3ccc(Cl)cc3Cl)CC[C@@H]2C1.Cl | 17.5 mg/kg | 280% | 9.2 mg/kg | 
18 | CC(C)(C)[C@]1(O)CCN2C[C@@H](c3ccc(C(F)(F)F)cc3)CC[C@@H]2C1.Cl | 18.5 mg/kg | 369% | > 30 mg/kg | 
19 | CC(=O)O[C@@]1(C(C)(C)C)CCN2C[C@@H](c3ccc(Cl)cc3)CC[C@@H]2C1.Cl |  |  |  | ED50 [11, 15]: 4 mg/kg
20 | Cl.O[C@@]1(c2ccccc2)CCN2C[C@@H](c3ccccc3Cl)CC[C@@H]2C1 | 7 mg/kg | 340% | > 10 mg/kg | 
21 | CC(C)(C)[C@]1(O)CCN2C[C@@H](c3c(Cl)cccc3Cl)CC[C@@H]2C1.Cl | > 30 mg/kg |  | > 30 mg/kg | 
22 | CC(=O)O[C@]1(C(C)(C)C)CCN2C[C@H](c3ccccc3Cl)CC[C@@H]2C1.Cl |  |  |  | ED50 [11, 15]: 28 mg/kg
23 | CC(C)(C)[C@]1(O)CCN2C[C@@H](c3ccc(Cl)cc3Cl)CC[C@@H]2C1.Cl (stereo in doubt; 5e) |  | 557% |  | ED50 [12]: 6.4 mg/kg; ED50 [10]: 12.2 mg/kg
24 | CC(=O)O[C@@]1(C(C)(C)C)CCN2C[C@@H](c3ccccc3Cl)CC[C@@H]2C1.Cl (stereo in doubt; 23) |  |  |  | ED50 [11, 15]: 36 mg/kg
25 | CC(C)(C)[C@]1(O)CCN2C[C@@H](c3ccc(Cl)cc3Cl)CC[C@@H]2C1.Cl (stereo in doubt; (+)-5e) |  | 283% |  | ED50 [12]: >30 mg/kg; ED50 [10]: 28.4 mg/kg
26 | CC(C)(C)[C@@]1(O)CCN2C[C@H](c3ccccc3Cl)CC[C@@H]2C1.Cl (stereo in doubt; (+)-5g) |  |  |  | ED50 [11]: >30 mg/kg
27 | CCCC[C@@]1(O)CCN2C[C@H](c3ccccc3)CC[C@@H]2C1 (stereo in doubt; (+)-19) |  |  |  | ED50 [11, 15]: > 30 mg/kg
28 | CC(C)(C)[C@]1(O)CCN2C[C@@H](c3ccc(Cl)cc3Cl)CC[C@@H]2C1.Cl (stereo in doubt; (-)-5e) |  | 350% |  | ED50 [12]: 4.7 mg/kg; ED50 [10]: 4.4 mg/kg
29 | CC(C)(C)[C@@]1(O)CCN2C[C@H](c3ccccc3Cl)CC[C@@H]2C1.Cl (stereo in doubt; (-)-5g) |  |  |  | ED50 [11]: >10 mg/kg
30 | CC(=O)O[C@@]1(C(C)(C)C)CCN2C[C@@H](c3ccccc3Cl)CC[C@@H]2C1.Cl (stereo in doubt; (-)-23) |  |  |  | ED50 [13]: > 30 mg/kg
31 | CN1CC[C@]23c4c5ccc(O)c4O[C@H]2[C@@H](O)C=C[C@H]3[C@H]1C5.Cl [MORPHINE HYDROCHLORIDE] |  |  |  | ED50 [1]: 2.4 mg/kg; ED50 [2]: 9.6 mg/kg; ED50 [3]: 36 mg/kg; ED50 [4]: 135 mg/kg; ED50 [5]: 86 mg/kg; ED50 [6]: 0.96 mg/kg; ED50 [7]: > 550 mg/kg
